Experimental data reported in ChEMBL document CHEMBL2311414, “Synthesis, antimalarial activity and cytotoxic potential of new monocarbonyl analogues of curcumin” (Bioorg Med Chem Lett, 2013).

Experiments:
MOLT-4 = test: Cytotoxicity against human MOLT4 cells after 48 hrs by MTT assay; format: functional, cell-based; settings: MOLT-4, 48 h
KB = test: Cytotoxicity against human KB cells after 48 hrs by MTT assay; format: functional, cell-based
[1] = Selectivity index, ratio of IC50 for african green monkey Vero cells to IC50 for chloroquine-resistant Plasmodium falciparum W2; format: toxicity, cell-based; settings: read-out: Ratio IC50
Plasmodium falciparum [2] = test: Antimalarial activity against chloroquine-sensitive Plasmodium falciparum D6 infected in RBC assessed as plasmodial LDH activity after 72 hrs; format: functional, organism-based
Vero = test: Cytotoxicity against african green monkey Vero cells up to 9 uM after 48 hrs by neutral red assay; format: cell-based; settings: chlorocebus sabaeus
DU-145 = test: Cytotoxicity against human DU145 cells after 48 hrs by MTT assay; format: functional, cell-based; settings: DU-145, 48 h
HeLa = test: Cytotoxicity against human HeLa cells after 48 hrs by MTT assay; format: functional, cell-based
PC-3 = test: Cytotoxicity against human PC3 cells after 48 hrs by MTT assay; format: functional, cell-based; settings: PC-3, 48 h
[3] = Selectivity index, ratio of IC50 for african green monkey Vero cells to IC50 for chloroquine-sensitive Plasmodium falciparum D6; format: toxicity, cell-based; settings: read-out: Ratio IC50
Plasmodium falciparum [4] = test: Antimalarial activity against chloroquine-resistant Plasmodium falciparum W2 infected in RBC assessed as plasmodial LDH activity after 72 hrs; format: functional, organism-based
[5] = Plasmodium falciparum, D6, 72 h, read-out: IC50
[6] = Plasmodium falciparum, W2, 72 h, read-out: IC50

Row | SMILES | IC50 (MOLT-4) [nM] | IC50 (KB) [nM] | selectivity ratio [1] | IC50 (Plasmodium falciparum [2]; [5]) [nM] | Activity (Vero) | IC50 (DU-145) [nM] | IC50 (HeLa) [nM] | IC50 (PC-3) [nM] | selectivity ratio [3] | IC50 (Plasmodium falciparum [4]; [6]) [nM] | IC50 (Plasmodium falciparum [2]) | IC50 (Plasmodium falciparum [4])
1 | COc1cc(/C=C2\CC/C(=C\c3ccc(OCCCN(C)C)c(OC)c3)C2=O)ccc1OCCCN(C)C | 430 | 200 | > 6 | 1140 | Non-toxic | 430 | 640 | 1500 | > 7.9 | 1530 |  | 
2 | Cc1nccn1CCCCOc1ccc(/C=C2\CC/C(=C\c3ccc(OCCCCn4ccnc4C)cc3)C2=O)cc1 |  |  | > 6 | 1090 | Non-toxic |  |  |  | > 7.7 | 1410 |  | 
3 | O=C1/C(=C/c2ccc(OCCCCn3ccnc3)cc2)CC/C1=C\c1ccc(OCCCCn2ccnc2)cc1 |  |  | > 2.5 | 2040 | Non-toxic |  |  |  | > 4.3 | 3540 |  | 
4 | CN(C)CCCCOc1ccc(/C=C2\CC/C(=C\c3ccc(OCCCCN(C)C)cc3)C2=O)cc1 | 330 | 1650 |  |  |  | 4400 | 6800 | 2900 |  |  |  | 
5 | O=C1/C(=C/c2ccc(OCCCCN3CCOCC3)cc2)CCC/C1=C\c1ccc(OCCCCN2CCOCC2)cc1 |  |  |  |  | Non-toxic |  |  |  |  |  | Not Active | Not Active
6 | O=C1/C(=C/c2ccc(OCCCCN3CCOCC3)cc2)CC/C1=C\c1ccc(OCCCCN2CCOCC2)cc1 |  |  |  |  | Non-toxic |  |  |  |  |  | Not Active | Not Active
7 | O=C1/C(=C/c2ccc(OCCCCN3CCCCC3)cc2)CCC/C1=C\c1ccc(OCCCCN2CCCCC2)cc1 | 730 | 2540 |  |  |  | 2110 | 3630 | 1530 |  |  |  | 
8 | Cc1nccn1CCOc1ccc(/C=C2\CC/C(=C\c3ccc(OCCn4ccnc4C)cc3)C2=O)cc1 |  |  | > 21.6 | 350 | Non-toxic |  |  |  | > 26.4 | 430 |  | 
9 | O=C1/C(=C/c2ccc(OCCn3ccnc3)cc2)CC/C1=C\c1ccc(OCCn2ccnc2)cc1 |  |  | > 26.4 | 450 | Non-toxic |  |  |  | > 21.6 | 370 |  | 
10 | COc1cc(/C=C2\CC/C(=C\c3ccc(OCCCCn4ccnc4C)c(OC)c3)C2=O)ccc1OCCCCn1ccnc1C |  |  | > 1.7 | 4000 | Non-toxic |  |  |  | > 1.9 | 4480 |  | 
11 | COc1cc(/C=C2\CC/C(=C\c3ccc(OCCCCn4ccnc4)c(OC)c3)C2=O)ccc1OCCCCn1ccnc1 |  |  | > 14 | 530 | Non-toxic |  |  |  | > 14.9 | 560 |  | 
12 | COc1cc(/C=C2\CC/C(=C\c3ccc(OCCCCN4CCCCCC4)c(OC)c3)C2=O)ccc1OCCCCN1CCCCCC1 | 410 | 2250 | > 4 | 1360 | Non-toxic | 1010 | 1390 | 300 | > 5.3 | 1820 |  | 
13 | COc1cc(/C=C2\CC/C(=C\c3ccc(OCCCCN4CCCCC4)c(OC)c3)C2=O)ccc1OCCCCN1CCCCC1 | 320 | 550 | > 2.6 | 1740 | Non-toxic | 460 | 490 | 500 | > 4.3 | 2850 |  | 
14 | COc1cc(/C=C2\CC/C(=C\c3ccc(OCCCCN4CCOCC4)c(OC)c3)C2=O)ccc1OCCCCN1CCOCC1 | 360 | 620 | > 11.9 | 690 | Non-toxic | 670 | 720 | 280 | > 10.8 | 630 |  | 
15 | COc1cc(/C=C2\CC/C(=C\c3ccc(OCCCn4ccnc4C)c(OC)c3)C2=O)ccc1OCCCn1ccnc1C | 660 | 1990 | > 2.6 | 2010 | Non-toxic | 3900 | 3150 | 200 | > 4 | 3010 |  | 
16 | COc1cc(/C=C2\CC/C(=C\c3ccc(OCCCn4ccnc4)c(OC)c3)C2=O)ccc1OCCCn1ccnc1 |  |  |  |  | Non-toxic |  |  |  |  |  | Not Active | Not Active
17 | COc1cc(/C=C2\CCC/C(=C\c3ccc(OCCCN4CCCCC4)c(OC)c3)C2=O)ccc1OCCCN1CCCCC1 | 550 | 1650 |  |  |  | 2050 | 1950 | 6910 |  |  |  | 
18 | COc1cc(/C=C2\CC/C(=C\c3ccc(OCCn4ccnc4C)c(OC)c3)C2=O)ccc1OCCn1ccnc1C | 100 | 3400 | > 6 | 1280 | Non-toxic | > 5000 | 900 | > 5000 | > 6.5 | 1380 |  | 
19 | COc1cc(/C=C2\CC/C(=C\c3ccc(OCCn4ccnc4)c(OC)c3)C2=O)ccc1OCCn1ccnc1 |  |  | > 4.9 | 2210 | Non-toxic |  |  |  | > 4 | 1810 |  | 
20 | COc1cc(/C=C2\CC/C(=C\c3ccc(OCCN(C)C)c(OC)c3)C2=O)ccc1OCCN(C)C | 30 | > 5000 | > 15.4 | 440 | Non-toxic | > 5000 | 500 | > 5000 | > 21.6 | 620 |  | 
21 | COc1cc(/C=C2\CC/C(=C\c3ccc(OCCN4CCCCC4)c(OC)c3)C2=O)ccc1OCCN1CCCCC1 | 20 | 4400 | > 15.4 | 500 | Non-toxic | > 5000 | 400 | > 5000 | > 16.4 | 530 |  | 
22 | COc1cc(/C=C2\CC/C(=C\c3ccc(OCCN4CCOCC4)c(OC)c3)C2=O)ccc1OCCN1CCOCC1 |  |  | > 3.4 | 3110 | Non-toxic |  |  |  | > 2.6 | 2410 |  | 
23 | COc1cc(/C=C2\CC/C(=C\c3ccc(OCCBr)c(OC)c3)C2=O)ccc1OCCBr |  |  |  |  | Non-toxic |  |  |  |  |  | Not Active | Not Active
24 | C[C@@H]1CC[C@H]2[C@@H](C)C(=O)O[C@@H]3O[C@@]4(C)CC[C@@H]1[C@]32OO4 [ARTEMISININ] |  |  | > 800 | 19 | Non-toxic |  |  |  | > 470 | 11 |  | 
25 | CCN(CC)CCCC(C)Nc1ccnc2cc(Cl)ccc12 (configuration not stated) [CHLOROQUINE] |  |  |  |  | Non-toxic |  |  |  |  |  |  | 
26 | COc1cccc2c1C(=O)c1c(O)c3c(c(O)c1C2=O)C[C@@](O)(C(=O)CO)C[C@@H]3O[C@H]1C[C@H](N)[C@H](O)[C@H](C)O1 [DOXORUBICIN] |  | 330 |  |  |  | 200 | 2200 | 200 |  |  |  | 
